Measured values published in patent US20040077580A1, “Antisense modulation of PI3K P85 Expression” (priority 2000, published 2004).
Strand notation (5' to 3'): a small letter for the sugar, then the base; units joined by * are phosphorothioate-linked, units joined directly phosphodiester-linked; [ ] holds rarer units or linkages, { } end groups; capitals alone tell only the bases. e = 2'-O-(2-methoxyethyl) (MOE); [5mC] = 5-methylcytosine; d = 2'-deoxy (DNA)

test system: human PI3K p85 RNA; test: Inhibition of human PI3K p85 mRNA levels by antisense oligonucleotides, real-time quantitative PCR; type: cell-based; conditions: chimeric phosphorothioate oligonucleotides with 2′-MOE wings and deoxy gap, oligonucleotide 150 nM, averaged from two experiments
Description: (§1) Cells were harvested 16 hours after oligonucleotide treatment.
Poly(A)+ mRNA was isolated according to Miura et al., Clin. Chem., 1996, 42, 1758-1764. Other methods for poly(A)+ mRNA isolation are taught in, for example, Ausubel, F. M. et al., Current Protocols in Molecular Biology, Volume 1, pp. 4.5.1-4.5.3, John Wiley & Sons, Inc., 1993. […] 60 μL lysis buffer (10 mM Tris-HCl, pH 7.6, 1 mM EDTA, 0.5 M NaCl, 0.5% NP-40, 20 mM vanadyl-ribonucleoside complex) was added to each well, the plate was gently agitated and then incubated at room temperature for five minutes. 55 μL of lysate was transferred to Oligo d(T) coated 96-well plates (AGCT Inc., Irvine Calif.). Plates were incubated for 60 minutes at room temperature, washed 3 times with 200 μL of wash buffer (10 mM Tris-HCl pH 7.6, 1 mM EDTA, 0.3 M NaCl). After the final wash, the plate was blotted on paper towels to remove excess wash buffer and then air-dried for 5 minutes. 60 μL of elution buffer (5 mM Tris-HCl pH 7.6), preheated to 70° C. was added to each well, the plate was incubated on a 90° C. hot plate for 5 minutes, and the eluate was then transferred to a fresh 96-well plate.
PI3K p85 probes and primers were designed to hybridize to the human PI3K p85 sequence, using published sequence information (GenBank accession number M61906, incorporated herein as SEQ ID NO: 1).
Target sites are indicated by nucleotide numbers, as given in the sequence source reference (Genbank accession no. M61906), to which the oligonucleotide binds. All compounds in Table 1 are oligodeoxynucleotides with phosphorothioate backbones (internucleoside linkages) throughout. […] Data are averages from two experiments. If present, “N.D.” indicates “no data”.
In accordance with the present invention, a second series of oligonucleotides targeted to human PI3K p85 were synthesized. Target sites are indicated by nucleotide numbers, as given in the sequence source reference (Genbank accession no. M61906), to which the oligonucleotide binds.
Cytidine residues in the 2′-MOE wings are 5-methylcytidines.
Data were obtained by real-time quantitative PCR as described in other examples herein and are averaged from two experiments. If present, “N.D.” indicates “no data”.

First: 28018 (antisense eG*e[5mC]*eT*eT*dC*dC*dT*dG*dT*dC*dC*dA*dT*dC*eA*e[5mC]*eT*eG) [compound 28018]
Second: 28019 (antisense eT*eT*e[5mC]*eA*dA*dT*dG*dG*dC*dT*dT*dC*dC*dA*e[5mC]*eG*eA*eG) [compound 28019]
The “% Inhibition of PI3K p85 mRNA levels” value of the first is higher: 47% for the first, 6% for the second.

Compared with “28020 (antisense eA*eA*eT*eT*dC*dT*dG*dC*dC*dA*dG*dG*dT*dT*eG*e[5mC]*eT*eG) [compound 28020]”, “28021 (antisense eG*eT*eA*eA*dG*dT*dC*dC*dA*dG*dG*dA*dG*dA*eT*eA*eG*e[5mC]) [compound 28021]” is higher in “% Inhibition of PI3K p85 mRNA levels” value: 12% for the first, 43% for the second.

First: 28022 (antisense eA*eT*eT*eT*dC*dA*dC*dT*dG*dT*dA*dA*dA*dC*eG*eG*e[5mC]*eT) [compound 28022]
Second: 28023 (antisense eG*e[5mC]*eT*eT*dG*dA*dA*dG*dA*dA*dA*dT*dG*dT*eT*eT*eT*eA) [compound 28023]
The “% Inhibition of PI3K p85 mRNA levels” value of the first is higher: 69% for the first, 43% for the second.

Going from “28024 (antisense eG*eG*e[5mC]*eT*dG*dC*dT*dG*dA*dG*dA*dA*dT*dC*eT*eG*eA*eA) [compound 28024]” to “28025 (antisense eG*eT*eT*e[5mC]*dA*dT*dT*dC*dC*dA*dT*dT*dC*dA*eG*eT*eT*eG) [compound 28025]”, the “% Inhibition of PI3K p85 mRNA levels” value falls from 59% to 22%.

Compared with “28026 (antisense eA*eG*eT*eA*dG*dG*dT*dT*dT*dT*dG*dG*dT*dG*eG*eT*eT*eT) [compound 28026]”, “28027 (antisense eT*eT*eA*eT*dT*dC*dA*dT*dA*dC*dC*dG*dT*dT*eG*eT*eT*eG) [compound 28027]” is lower in “% Inhibition of PI3K p85 mRNA levels” value: 54% for the first, 45% for the second.

Compared with “28028 (antisense eA*eT*eT*e[5mC]*dA*dG*dC*dA*dT*dT*dT*dT*dG*dT*eA*eA*eG*eG) [compound 28028]”, “28029 (antisense eA*e[5mC]*e[5mC]*eA*dC*dA*dG*dA*dA*dC*dT*dG*dA*dA*eG*eG*eT*eT) [compound 28029]” is higher in “% Inhibition of PI3K p85 mRNA levels” value: 0% for the first, 57% for the second.

Compared with “28030 (antisense eA*eT*eT*eT*dC*dC*dT*dG*dG*dG*dA*dT*dG*dT*eG*e[5mC]*eG*eG) [compound 28030]”, “28031 (antisense e[5mC]*e[5mC]*eG*e[5mC]*dT*dC*dT*dT*dG*dG*dG*dT*dC*dT*eG*eG*e[5mC]*eA) [compound 28031]” is lower in “% Inhibition of PI3K p85 mRNA levels” value: 74% for the first, 15% for the second.

First: 28032 (antisense eT*eT*eT*e[5mC]*dT*dC*dA*dT*dT*dG*dC*dC*dT*dT*e[5mC]*eA*e[5mC]*eG) [compound 28032]
Second: 28033 (antisense eA*eT*e[5mC]*e[5mC]*dT*dT*dT*dG*dT*dA*dT*dT*dT*dC*eT*eT*eT*e[5mC]) [compound 28033]
The “% Inhibition of PI3K p85 mRNA levels” value of the first is lower: 35% for the first, 46% for the second.

Compared with “28034 (antisense eT*eT*e[5mC]*eA*dA*dG*dT*dC*dT*dT*dC*dT*dT*dC*e[5mC]*eA*eA*eT) [compound 28034]”, “28035 (antisense eA*eT*eT*eG*dG*dT*dC*dT*dC*dT*dC*dG*dT*dC*eT*eT*eT*e[5mC]) [compound 28035]” is lower in “% Inhibition of PI3K p85 mRNA levels” value: 28% for the first, 0% for the second.

Going from “28036 (antisense eT*e[5mC]*eA*eA*dC*dT*dT*dC*dT*dT*dT*dT*dG*dC*e[5mC]*eG*eA*eA) [compound 28036]” to “28037 (antisense eT*eT*eG*e[5mC]*dC*dC*dA*dA*dC*dC*dA*dC*dT*dC*eG*eT*eT*e[5mC]) [compound 28037]”, the “% Inhibition of PI3K p85 mRNA levels” value falls from 59% to 28%.

First: 28038 (antisense eG*eT*e[5mC]*eT*dT*dC*dA*dG*dT*dG*dT*dT*dT*dT*e[5mC]*eA*eT*eT) [compound 28038]
Second: 28039 (antisense e[5mC]*eT*eT*eT*dG*dT*dT*dT*dC*dG*dG*dT*dT*dG*e[5mC]*eT*eG*e[5mC]) [compound 28039]
The “% Inhibition of PI3K p85 mRNA levels” value of the first is lower: 0% for the first, 46% for the second.

Compared with “28040 (antisense e[5mC]*e[5mC]*eT*eG*dT*dT*dT*dA*dC*dT*dG*dC*dT*dC*eT*e[5mC]*e[5mC]*e[5mC]) [compound 28040]”, “28041 (antisense e[5mC]*e[5mC]*eA*e[5mC]*dC*dA*dC*dT*dA*dC*dA*dG*dA*dG*e[5mC]*eA*eG*eG) [compound 28041]” is higher in “% Inhibition of PI3K p85 mRNA levels” value: 0% for the first, 38% for the second.

First: 28042 (antisense e[5mC]*eT*eT*eT*dA*dC*dT*dT*dC*dG*dC*dC*dG*dT*e[5mC]*e[5mC]*eA*e[5mC]) [compound 28042]
Second: 28043 (antisense eA*eA*eA*eG*dC*dC*dA*dT*dA*dG*dC*dC*dA*dG*eT*eT*eG*e[5mC]) [compound 28043]
The “% Inhibition of PI3K p85 mRNA levels” value of the first is lower: 0% for the first, 10% for the second.

“28044 (antisense eA*e[5mC]*eA*eT*dT*dG*dA*dG*dG*dG*dA*dG*dT*dC*eG*eT*eT*eG) [compound 28044]” and “28045 (antisense eG*e[5mC]*e[5mC]*e[5mC]*dT*dT*dT*dG*dC*dT*dT*dT*dC*dC*eA*eG*eA*eG) [compound 28045]” are the same in “% Inhibition of PI3K p85 mRNA levels” value: 0% for the first, 0% for the second.

Compared with “28046 (antisense eA*eT*e[5mC]*eA*dG*dA*dC*dT*dG*dG*dA*dG*dA*dG*eG*eA*eG*e[5mC]) [compound 28046]”, “28047 (antisense eA*eA*eA*eG*dA*dA*dG*dG*dG*dA*dT*dA*dA*dG*e[5mC]*eA*e[5mC]*eT) [compound 28047]” is lower in “% Inhibition of PI3K p85 mRNA levels” value: 32% for the first, 18% for the second.

Compared with “28048 (antisense e[5mC]*eT*eG*e[5mC]*dC*dT*dC*dT*dC*dT*dC*dT*dC*dC*eT*e[5mC]*e[5mC]*eG) [compound 28048]”, “28049 (antisense e[5mC]*e[5mC]*eA*eG*dG*dC*dT*dA*dA*dA*dC*dC*dA*dG*eG*e[5mC]*eT*eG) [compound 28049]” is higher in “% Inhibition of PI3K p85 mRNA levels” value: 0% for the first, 24% for the second.

First: 28050 (antisense eT*eG*eT*e[5mC]*dT*dG*dG*dG*dT*dC*dC*dA*dC*dC*eG*eT*eG*e[5mC]) [compound 28050]
Second: 28051 (antisense eG*eA*e[5mC]*eG*dT*dG*dC*dC*dT*dT*dT*dC*dT*dG*e[5mC]*eT*eA*e[5mC]) [compound 28051]
The “% Inhibition of PI3K p85 mRNA levels” value of the first is higher: 57% for the first, 53% for the second.

First: 28052 (antisense eA*eT*eT*e[5mC]*dT*dC*dC*dC*dA*dA*dA*dG*dC*dG*eT*e[5mC]*e[5mC]*e[5mC]) [compound 28052]
Second: 28053 (antisense eT*eT*e[5mC]*eT*dG*dG*dC*dA*dC*dT*dT*dT*dC*dT*eA*eT*eG*eA) [compound 28053]
The “% Inhibition of PI3K p85 mRNA levels” value of the first is higher: 55% for the first, 0% for the second.

First: 28054 (antisense e[5mC]*e[5mC]*eT*eT*dC*dA*dG*dC*dA*dA*dA*dA*dC*dA*eA*eA*eA*e[5mC]) [compound 28054]
Second: 28055 (antisense eA*eA*e[5mC]*eT*dG*dA*dA*dA*dT*dA*dA*dC*dA*dA*e[5mC]*eT*eT*eA) [compound 28055]
The “% Inhibition of PI3K p85 mRNA levels” value of the first is lower: 0% for the first, 14% for the second.

“28056 (antisense e[5mC]*e[5mC]*eA*eA*dC*dA*dA*dA*dA*dC*dA*dG*dT*dC*e[5mC]*eA*eA*eA) [compound 28056]” was tested, and the “% Inhibition of PI3K p85 mRNA levels” value was 15%.

test system: mouse PI3K p85; test: Inhibition of mouse PI3K p85 mRNA levels by antisense oligonucleotides, real-time quantitative RT-PCR; type: cell-based; design: concentration or dose not given beside the values; conditions: chimeric phosphorothioate 2′-MOE gapmers, averaged from two experiments
Description: as §1
Target sites are indicated by nucleotide numbers, as given in the sequence source reference (Genbank accession no. U50413; SEQ ID NO: 48), to which the oligonucleotide binds.
Cytidine residues are 5-methylcytidines throughout the oligonucleotides.
Data were obtained by real-time quantitative RT-PCR as described in other examples herein and are averaged from two experiments. […] If present, “N.D.” indicates “no data”.

First: 131406 (antisense e[5mC]*eG*e[5mC]*eT*eG*d[5mC]*dT*dT*d[5mC]*d[5mC]*dT*d[5mC]*d[5mC]*dA*dA*e[5mC]*eT*e[5mC]*eG*eG) [compound 131406]
Second: 131407 (antisense e[5mC]*eG*e[5mC]*eT*e[5mC]*d[5mC]*dA*d[5mC]*dT*d[5mC]*dT*d[5mC]*dA*dG*d[5mC]*eT*eT*e[5mC]*eA*e[5mC]) [compound 131407]
The “% Inhib. of mouse PI3K p85 mRNA levels” value of the first is lower: 56% for the first, 85% for the second.

Compared with “131408 (antisense e[5mC]*e[5mC]*eA*eT*e[5mC]*dT*dG*dT*d[5mC]*d[5mC]*dT*d[5mC]*d[5mC]*dA*dT*e[5mC]*eA*eA*e[5mC]*eG) [compound 131408]”, “131409 (antisense eG*e[5mC]*eA*e[5mC]*eT*d[5mC]*dA*dT*dG*dT*d[5mC]*dT*dG*d[5mC]*dA*eG*e[5mC]*eT*e[5mC]*eT) [compound 131409]” is lower in “% Inhib. of mouse PI3K p85 mRNA levels” value: 88% for the first, 85% for the second.
